Literature values, collected in PMC7905424 (Biochemistry. Biokhimiia, 2021).
Where two headings read alike, the source gives them in different places.

Experiments:
[1] = system: pro-inflammatory cytokine IL-6; settings: COVID-19 patients

Row | Substance | Kd (SARS-CoV-2 S protein; read-out: Kd for ACE2, lower end of literature range) [nM] | Kd (SARS-CoV-2 S protein; read-out: Kd for ACE2, upper end of literature range) [nM] | content of the pro-inflammatory cytokine IL-6 [1]
1 | ACE2 | 1.2 | 95 | 
2 | low-molecular-weight heparin |  |  | pronounced decrease
